Assay: Calcein leakage from SUVs, stated for several vesicle compositions together
Conditions: control peptide; all SUVs tested: PC:PE (60:40), PC:PE (80:20), PC:PG (60:40)

melittin
calcein leakage (in words): induced calcein leakage from all SUVs tested

— PMC6386598 (Cell chemical biology, 2018)
